Reference: patent US20250135022A1, “METHODS FOR THE USE OF A B7-H3 ANTIBODY-DRUG CONJUGATE IN COMBINATION WITH A PD-1 X CTLA-4 BISPECIFIC MOLECULE” (MACROGENICS, INC., priority 2022, published 2025)

Key:
Calu-6 lung cancer cells = assay: Anti-tumor activity against subcutaneously implanted Calu-6 xenograft in CD-1 Nude mouse model; format: in vivo, CD-1 Nude mice; design: key to Anti-Tumor Activity: Highly Active: A T/C<10% is considered highly active; Active: a T/C≤42% is the minimum level of anti-tumor activity; Inactive: a T/C value of >42% is inactive
Description: In brief, ˜5×10^6 tumor cells (suspended in 1:1 media and MATRIGEL®) were subcutaneously implanted into the flank of female CD-1 Nude mice (homozygous; Charles River Laboratories). When tumors had reached a volume of approximately 100-235 mm3 (average 172 mm^3) on day 21, the mice were randomized and MGC018 or control vehicle were administered intravenously. In these studies, mice were administered either a single dose (12 mg/kg, QW×1) of MGC018 or a fractionated dose of MGC018 (0.3 mg/kg, 1 mg/kg, or 3 mg/kg) once a week for 4 weeks (QW×4W). Vehicle was administered as a control on day 21. Tumors were measured twice weekly by orthogonal measurements with electronic calipers, with tumor volumes calculated as: (length×width×height)/2. The tumor volume (relative to control) was determined (“T/C”). A finding that the tumor volume of treated animals had decreased to ≤5 mm^3 during the study period was considered to denote a Complete Regression (“CR”) and a Partial Regression (“PR”) was defined when tumors were reduced by 50% or greater from day of dosing at any point during the study.

A375.S2 melanoma cells = assay: Anti-tumor activity against subcutaneously implanted A375.S2 xenograft in SCID CES1c-KO mouse model; format: in vivo, SCID CES1c-KO mice
Description: In brief, ˜5×10^6 A375.S2 tumor cells (suspended in 1:1 media and MATRIGEL®) were subcutaneously implanted into the flank of female SCID CES1c-KO mice (Charles River Laboratories). When tumors had reached a volume of approximately 70-255 mm^3 (average 124 mm^3) on day 22, the mice were randomized and MGC018 or control vehicle were administered intravenously. In these studies, mice were administered either a single dose (1 mg/kg or 3 mg/kg, QW×1) of MGC018 or a fractionated dose of MGC018 (0.3 mg/kg or 1 mg/kg) once a week for 4 weeks (QW×4W). Vehicle was administered as a control on day 22. Tumors were measured twice weekly by orthogonal measurements with electronic calipers, with tumor volumes calculated as: (length×width×height)/2. The tumor volume (relative to control) was determined (“T/C”). A finding that the tumor volume of treated animals had decreased to ≤5 mm^3 during the study period was considered to denote a Complete Regression (“CR”) and a Partial Regression (“PR”) was defined when tumors were reduced by 50% or greater from day of dosing at any point during the study.

[1] = Population pharmacokinetic (PPK) modeling of clinical PK data from a dose escalation trial; format: in vivo, human
Description: To analyze the pharmacokinetics of single and fractionated dose administration of MGC018, population pharmacokinetic (PPK) modeling was performed on clinical PK data from a dose escalation trial of MGC018. The initial model was based on data from 52 patients (516 ADC observations, 495 payload observations) and later updated with data from a total of 122 patients. MGC018 concentration values below quantification limit (BQL) were excluded from the analysis but were retained (commented out) in the data set.
The PPK analysis was conducted via nonlinear mixed-effects modeling with INTERACTION option (FOCEI) method using the NONMEM software, Version 7.5.0 (ICON Development Solutions). A quasi-steady-state (QSS) approximation of the target-mediated drug disposition (TMDD) model was used to describe the observed ADC data. All clearance and volume parameters were scaled allometrically. Goodness-of-fit plots and diagnostics (including standard error of the estimates) were used to evaluate the model fit. Due to the small sample size (52 subjects) no formal covariate analysis was attempted, although dependence of model parameters on weight, dose, and sex was investigated using diagnostic plots or by inclusion in the model. Ability of the model to describe strong covariate relationships identified by the model was tested by stratifying the diagnostic plots and model evaluation procedures by the covariates of interest. Specifically, the diagnostics and the predictive check procedures were stratified by dose (cohort).
Of the models evaluated, a linear 2-compartment with individual random effects on clearance (CL), central volume (Vc), peripheral volume (VP), inter-compartment clearance (Q), and proportional residual variability) best described the observed ADC data and advanced for further development of the combined ADC-free payload model. The free payload was described by a 1-compartment model with random effects on free payload clearance (CLTOX) and volume (VTOX) parameters with the input (from ADC) to both the central and delay compartments, with the random effects on the delay rate constant Ktr, CLTOX, and VTOX. The final model (Model 151) was selected based on diagnostics and goodness-of-fit and used to estimate MGC018 PK parameters. According to the model, elimination from the ADC was directed to the free payload, to the delay and central free payload compartments. Approximately equal fractions of ADC elimination went to each of these compartments. […] Thus, the free payload kinetics were defined by the kinetics of ADC and delay between ADC elimination and input to the free payload central compartment

[2] = 0.3 mg/kg, QW × 4W, intravenous

Q: With “MGC018: B7-H3-ADC: Light and Heavy Chain of anti-B7-H3 hmAb-A (SEQ ID NO:19, 20) conjugated via maleimide, valine-citrulline, para-aminobenzyloxycarbonyl linker to seco-DUBA payload” as the substance, how does the “% T/C at Day 44” value (Calu-6 lung cancer cells; [2]) read?
A: 78%

Q: What about the “Anti-Tumor Activity” value (Calu-6 lung cancer cells; [2]) of the same substance?
A: Active

Q: What about the “CR (complete regression)” value (Calu-6 lung cancer cells; [2]) of the same substance?
A: 0/7

Q: And the “PR (partial regression)” value (Calu-6 lung cancer cells; [2])?
A: 0/7

Q: And the “% T/C at Day 44” value (Calu-6 lung cancer cells; 1 mg/kg, QW × 4W, intravenous)?
A: 30%

Q: And the “Anti-Tumor Activity” value (Calu-6 lung cancer cells; 1 mg/kg, QW × 4W, intravenous)?
A: Active

Q: What about the “CR (complete regression)” value (Calu-6 lung cancer cells; 1 mg/kg, QW × 4W, intravenous) of the same substance?
A: 0/7

Q: What about the “PR (partial regression)” value (Calu-6 lung cancer cells; 1 mg/kg, QW × 4W, intravenous) of the same substance?
A: 0/7

Q: What about the “% T/C at Day 44” value (Calu-6 lung cancer cells; 3 mg/kg, QW × 4W, intravenous) of the same substance?
A: 17%

Q: What about the “Anti-Tumor Activity” value (Calu-6 lung cancer cells; 3 mg/kg, QW × 4W, intravenous) of the same substance?
A: Active

Q: And the “CR (complete regression)” value (Calu-6 lung cancer cells; 3 mg/kg, QW × 4W, intravenous)?
A: 0/7

Q: What about the “PR (partial regression)” value (Calu-6 lung cancer cells; 3 mg/kg, QW × 4W, intravenous) of the same substance?
A: 2/7

Q: What about the “% T/C at Day 44” value (Calu-6 lung cancer cells; 12 mg/kg, QW × 1, intravenous) of the same substance?
A: 6%

Q: And the “CR (complete regression)” value (Calu-6 lung cancer cells; 12 mg/kg, QW × 1, intravenous)?
A: 0/7

Q: What about the “PR (partial regression)” value (Calu-6 lung cancer cells; 12 mg/kg, QW × 1, intravenous) of the same substance?
A: 2/7

Q: And the “anti-tumor activity of fractionated dose compared with single dose” value (Calu-6 lung cancer cells; fractionated 0.3, 1 and 3 mg/kg QW×4W vs single 12 mg/kg QW×1)?
A: near equivalent anti-tumor activity

Q: And the “% T/C at Day 53” value (A375.S2 melanoma cells; [2])?
A: 6%

Q: And the “CR (complete regression)” value (A375.S2 melanoma cells; [2])?
A: 0/7

Q: What about the “PR (partial regression)” value (A375.S2 melanoma cells; [2]) of the same substance?
A: 4/7

Q: What about the “% T/C at Day 53” value (A375.S2 melanoma cells; 1 mg/kg, QW × 1, intravenous) of the same substance?
A: 5%

Q: What about the “CR (complete regression)” value (A375.S2 melanoma cells; 1 mg/kg, QW × 1, intravenous) of the same substance?
A: 0/7

Q: What about the “PR (partial regression)” value (A375.S2 melanoma cells; 1 mg/kg, QW × 1, intravenous) of the same substance?
A: 7/7

Q: What about the “% T/C at Day 53” value (A375.S2 melanoma cells; 1 mg/kg, QW × 4W, intravenous) of the same substance?
A: 1%

Q: And the “CR (complete regression)” value (A375.S2 melanoma cells; 1 mg/kg, QW × 4W, intravenous)?
A: 6/7

Q: And the “PR (partial regression)” value (A375.S2 melanoma cells; 1 mg/kg, QW × 4W, intravenous)?
A: 7/7

Q: And the “% T/C at Day 53” value (A375.S2 melanoma cells; 3 mg/kg, QW × 1, intravenous)?
A: 1%

Q: What about the “CR (complete regression)” value (A375.S2 melanoma cells; 3 mg/kg, QW × 1, intravenous) of the same substance?
A: 7/7

Q: What about the “PR (partial regression)” value (A375.S2 melanoma cells; 3 mg/kg, QW × 1, intravenous) of the same substance?
A: 7/7

Q: And the “anti-tumor activity of fractionated dose compared with single dose” value (A375.S2 melanoma cells; fractionated 0.3 and 1 mg/kg QW×4W vs single 1 or 3 mg/kg QW×1)?
A: near equivalent anti-tumor activity

Q: And the “central volume (V)” value ([1]; ADC, typical 75 kg subject)?
A: 3.72 L

Q: What about the “clearance (CL)” value ([1]; ADC, typical 75 kg subject) of the same substance?
A: 1.68 L/day

Q: What about the “distribution half-life (t1/2 dist)” value ([1]; ADC, typical 75 kg subject) of the same substance?
A: 35.5 h

Q: What about the “inter-compartment clearance (Q)” value ([1]; ADC, typical 75 kg subject) of the same substance?
A: 0.0549 L/day

Q: And the “peripheral volume (Vp)” value ([1]; ADC, typical 75 kg subject)?
A: 0.700 L

Q: What about the “terminal half-life (t1/2 term)” value ([1]; ADC, typical 75 kg subject) of the same substance?
A: 220 h

Q: And the “half-life corresponding to delay rate constant” value ([1]; Model 151)?
A: 130 h

Q: What about the “delay rate constant (Ktr)” value ([1]; delay between ADC elimination and input to free payload central compartment, Model 151) of the same substance?
A: 0.128 day⁻¹

Q: And the “free payload elimination rate constant KTOX=CLTOX/VTOX” value ([1]; free payload, Model 151)?
A: 52.5 day⁻¹

Q: What about the “half-life corresponding to free payload elimination rate constant” value ([1]; free payload, Model 151) of the same substance?
A: about 20 minutes
